# Measured values taken from PMC6811774, “Potent, selective, and subunit‐dependent activation of TRPC5 channels by a xanthine derivative” (British Journal of Pharmacology, 2019).
# “And” between values parts separate entries of the source, which are not always exact repeats. Equal values may be shown once.
# Key:
# [1] = biological target: T1, TRPC5-SYFP2 (TRPC5:C5 channels) (Homo sapiens, UniProt Q9UL62); experiment: [Ca2+]i measurement (Fura-2, FlexStation) in (Tet+) HEK T-REx cells expressing hTRPC5-SYFP2; assay type: cell-based
# T1 construct: expressed in transfected cells
# T1 sequence (Q9UL62 1-973): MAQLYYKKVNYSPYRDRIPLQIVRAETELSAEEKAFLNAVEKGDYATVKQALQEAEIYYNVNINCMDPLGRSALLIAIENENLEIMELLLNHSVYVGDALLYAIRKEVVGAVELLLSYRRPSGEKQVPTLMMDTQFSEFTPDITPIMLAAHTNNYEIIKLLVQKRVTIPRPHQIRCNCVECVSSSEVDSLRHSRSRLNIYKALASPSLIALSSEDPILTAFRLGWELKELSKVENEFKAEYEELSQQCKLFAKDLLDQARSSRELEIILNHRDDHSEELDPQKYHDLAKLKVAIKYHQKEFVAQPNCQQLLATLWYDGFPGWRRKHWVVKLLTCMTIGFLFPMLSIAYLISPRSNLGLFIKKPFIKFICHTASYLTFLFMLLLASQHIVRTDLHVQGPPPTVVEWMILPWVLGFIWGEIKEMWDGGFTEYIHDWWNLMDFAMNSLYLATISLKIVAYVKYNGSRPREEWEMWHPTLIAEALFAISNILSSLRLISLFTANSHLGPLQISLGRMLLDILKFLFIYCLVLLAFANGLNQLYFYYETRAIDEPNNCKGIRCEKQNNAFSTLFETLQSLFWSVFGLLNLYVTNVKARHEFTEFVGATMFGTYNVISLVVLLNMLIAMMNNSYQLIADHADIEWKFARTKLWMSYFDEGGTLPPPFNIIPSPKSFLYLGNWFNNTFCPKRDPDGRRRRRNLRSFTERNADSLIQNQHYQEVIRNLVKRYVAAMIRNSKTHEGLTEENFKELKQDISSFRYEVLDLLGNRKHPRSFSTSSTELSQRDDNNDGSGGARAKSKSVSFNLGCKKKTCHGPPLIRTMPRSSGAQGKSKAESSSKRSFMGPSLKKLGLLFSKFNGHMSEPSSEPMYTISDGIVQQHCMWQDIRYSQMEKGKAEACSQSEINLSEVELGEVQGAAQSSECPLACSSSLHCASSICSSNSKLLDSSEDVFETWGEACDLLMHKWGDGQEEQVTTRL
# Text: To facilitate cloning of TRPC5‐SYFP2 and TRPC4‐SYFP2, a pcDNA™4/TO expression vector (ThermoFisher Scientific, Waltham, MA, USA), into which a four amino acid linker (ASAS) flanked by AgeI and SacII restriction sites had been introduced between EcoRI and XhoI restriction sites, was used (Naylor et al., 2016). Human TRPC4β was inserted between BamHI and AgeI restriction sites as described previously (Ludlow et al., 2017). Human TRPC5 (forward primer: 5′ GCTTGGTACCGCCACCATG 3′ and reverse primer: 5′ […] 3′) was inserted upstream of the linker between KpnI and AgeI restriction sites using hTRPC5/pcDNA™4/TO (Zeng et al., 2004) as a PCR template. Both constructs contained an N‐terminal Kozak sequence. SYFP2 was inserted downstream of the linker between SacII and XbaI restriction sites using pSYFP2‐C1 as a PCR template (forward primer, 5′ […] 3′; reverse primer, 5′ […] 3′). pSYFP2‐C1 was a gift from Dorus Gadella (Addgene plasmid #22878; http://n2t.net/addgene:22878; RRID:Addgene_22878; Kremers, Goedhart, van Munster, & Gadella, 2006). Plasmids were sequenced to verify identity.
# HEK T‐REx™ cell line was transfected with TRPC5‐SYFP2 or TRPC4‐SYFP2 using FuGENE® HD transfection reagent. After 48 hr, cells were put under antibiotic selection using 400 μg·ml^−1 zeocin and 10 μg·ml^−1 blasticidin S (Invivogen, San Diego, California, USA). Medium changes were carried out regularly to remove dead cells. HEK T‐REx cells expressing tetracycline‐inducible human TRPC5, TRPC4–C1, and TRPC5–C1 were created as described previously (Akbulut et al., 2015; Ludlow et al., 2017; Rubaiy, Ludlow, Henrot, et al., 2017). TRPC5–C1 and TRPC4–C1 concatemers allow expression of functional channels with defined 2:2 stoichiometry that display ion permeability and current–voltage relationships distinct from those of homomeric TRPC4:C4 or TRPC5:C5 channels and consistent with those obtained upon co‐expression of TRPC1 with TRPC4 or TRPC5 (Ludlow et al., 2017; Rubaiy, Ludlow, Bon, & Beech, 2017; Rubaiy, Ludlow, Henrot, et al., 2017). Cells were cultured in DMEM‐F12 GlutaMAX (Invitrogen, Paisley, UK) containing 10% FBS (Sigma‐Aldrich, Gillingham, UK), with the addition of blasticidin (10 μg·ml^−1) and zeocin (400 μg·ml^−1) to maintain the stable incorporation of the tetracycline repressor and the channel of interest, respectively. Expression of proteins was induced by the addition of tetracycline (1 μg·ml^−1, 24 hr). Cells were maintained in a humidified incubator with 5% CO2 at 37°C. HEK 293 cells stably expressing tetracycline‐regulated human http://www.guidetopharmacology.org/GRAC/ObjectDisplayForward?objectId=494 were prepared similarly and have also been described previously (McHugh, Flemming, Xu, Perraud, & Beech, 2003). For experiments using transient co‐expression of TRPC1 and TRPC5, HEK cells at 40–60% confluency were transfected with pIRES2‐AcGFP1 and pIRES2‐DsRed‐Express2 plasmids containing human TRPC1 and TRPC5, respectively, using Lipofectamine 3000 (ThermoFisher Scientific, Yokohama, Japan). All experiments using transient expression were performed within 48 hr after transfection. A498 cells were cultured in Minimum Essential Medium containing Earle's salts (ThermoFisher Scientific, Loughborough, UK), supplemented with 10% FBS and penicillin–streptomycin (100 units per ml^−1, 100 μg·ml^−1; ThermoFisher Scientific, Loughborough, UK). CHO cells stably expressing http://www.guidetopharmacology.org/GRAC/ObjectDisplayForward?objectId=510 were maintained in Ham's Nutrient Mixture F12 (ThermoFisher Scientific, Loughborough, UK) supplemented with 10% FBS, penicillin–streptomycin, and 1 mg·ml^−1 G418 (InvivoGen, San Diego, California, USA). For experiments using hTRPC3 and hTRPC6, WT HEK 293 cells were transfected with hTRPC3 (Naylor et al., 2016) or hTRPC6 (cloned into pcDNA3) using jetPRIME® transfection reagent (VWR, Lutterworth, UK). Cells were assayed 48 hr after transfection. […]
# [2] = tested on: TRPC5:C5; parameters: method as in Rubaiy, Ludlow, Henrot, et al., 2017; settings: EA-mediated activation, 10 nM EA; ref Rubaiy, Ludlow, Henrot, et al., 2017; read-out: IC50, inhibition of TRPC5:C5; cited from earlier work
smiles,measurement,setting,value
"Cn1c(=O)n(CCCO)c(=O)c2c1nc(Oc1cccc(OC(F)(F)F)c1)n2Cc1ccc(Cl)cc1 [Pico145, reference compound]",IC50,[1],2 nM
same,Concentration giving maximal inhibition of AM237 response,[1]; 100 nM AM237,10 nM
same,"Hill slope, inhibition of AM237 response",[1]; 100 nM AM237,–1.3
same,Mode of inhibition of AM237-mediated TRPC5:C5 activation,"[1]; surmountable, parallel rightward shifts, confirmed by patch-clamp",competitive antagonist
same,IC50,[2],1 nM and ~1 nM
